How the values were obtained:
substance P = details: comparison with capsaicin; prevents pain sensation without compromising touch or motor coordination; cited from earlier work
[1] = Use of capsaicin to induce salivation: application to oral mucosa of a human subject, saliva collected for 15 minutes; type: in vivo
Description: A subject was used as a test subject to determine whether application of capsaicin to oral mucosa causes salivation. Approximately 0.25 inches of capsaicin (0.025% generic capsaicin cream) was applied to the oral mucosa. […] Saliva was collected for a period of about 15 minutes in a paper cup. The amount was compared to the amount of saliva collected for a period of 15 minutes before applying capsaicin to the oral mucosa. […] The increased salivation continued for approximately an hour. In preferred embodiments of the present invention, capsaicin or capsaicinoid is combined with one or more of the following: antihistamines such as Benadryl®, or other antihistamines, antibacterials, antifungals, antivirals, and/or antipruritis medications, such as those described above.

[2] = cited from earlier work

COc1cc(CNC(=O)CCCC/C=C\C(C)C)ccc1O [Civamide, cis-capsaicin]
depletion of substance P compared with capsaicin (substance P): more effective than capsaicin in depleting substance P

COc1cc(CNC(=O)CCCC/C=C/C(C)C)ccc1O [capsaicin]
duration of increased salivation ([1]; one subject, 0.025% capsaicin cream on oral mucosa): approximately an hour
increase in salivation relative to baseline level of salivation ([1]; one subject, about 0.25 inches of 0.025% capsaicin cream on oral mucosa, saliva collected about 15 minutes vs 15 minutes before application, estimated): about two to three times the baseline level
sensation reported by the subject after application ([1]; within a few minutes of application, increased in intensity for about twenty minutes): warm feeling in the mouth

CC[C@@H]1C(=O)OC[C@@H]1Cc1cncn1C [pilocarpine]
stimulation of salivary glands ([2]; patients experiencing xerostomia due to radiotherapy): effective in stimulating salivary glands
side effects of treatment ([2]; pilocarpine treatment): often associated with side effects involving heart, blood pressure, digestion and profuse sweating

Reference: patent publication US20030082249A1, “Compositions containing capsaicin and its derivatives, and their use in treating mucositis” (Ovation Pharmaceuticals, priority 2001, published 2003)
